From US11173151B2, “Substituted triazole derivatives and uses thereof” (BAYER AKTIENGESELLSCHAFT, priority 2017, dated 2021) come the findings set out here.

For one assay, the target named is T1, human V1a receptor (Homo sapiens, UniProt P37288).
T1 construct: expressed in transfected cells; host or cells: CHO K1 (ATCC), also stably transfected with a modified aequorin
As to the kind of experiment: Cellular in vitro assay for determining vasopressin receptor activity, V1a receptor cell line (CHO, aequorin luminescence). It is filed as cell-based. Particulars: for IC50: CHO cell line transfected with human V1a receptor, [Arg]-vasopressin at EC50 concentration, read-out: IC50 hV1a; for ratio IC50 hV2/hV1a: selectivity ratio IC50 hV2 / IC50 hV1a. A digest of the protocol: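 Antagonism is measured in stable CHO K1 transfectants coexpressing the Gαq-coupled receptor and a calcium-sensitive aequorin photoprotein. Agonist challenge uses [Arg]-vasopressin at EC50 after a 10-minute compound exposure; IC50 values come from the luminescence signal.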

The next assay addresses T2, human V2 receptor (Homo sapiens, UniProt P30518).
T2 construct: expressed in transfected cells; host or cells: CHO K1 (ATCC) expressing firefly luciferase under a CRE-responsive promoter
Kind of assay: Cellular in vitro assay for determining vasopressin receptor activity, V2 receptor cell line (CHO, CRE-luciferase). It is filed as cell-based. Particulars: CHO cell line transfected with human V2 receptor; [Arg8]-vasopressin at EC50 concentration, 3 hours; read-out: IC50 hV2.

T1 sequence (P37288 whole entry): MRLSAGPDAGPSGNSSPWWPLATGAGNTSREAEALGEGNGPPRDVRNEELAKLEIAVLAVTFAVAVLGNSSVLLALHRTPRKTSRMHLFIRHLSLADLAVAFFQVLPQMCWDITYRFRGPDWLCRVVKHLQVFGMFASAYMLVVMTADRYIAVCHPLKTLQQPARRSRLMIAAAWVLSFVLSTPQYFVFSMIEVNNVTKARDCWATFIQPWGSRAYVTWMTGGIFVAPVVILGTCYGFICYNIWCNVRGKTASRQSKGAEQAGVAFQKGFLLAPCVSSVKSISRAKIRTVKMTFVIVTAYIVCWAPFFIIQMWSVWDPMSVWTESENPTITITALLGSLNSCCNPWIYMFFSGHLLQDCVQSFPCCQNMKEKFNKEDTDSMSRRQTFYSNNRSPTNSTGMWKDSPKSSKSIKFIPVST
T2 sequence (P30518 whole entry): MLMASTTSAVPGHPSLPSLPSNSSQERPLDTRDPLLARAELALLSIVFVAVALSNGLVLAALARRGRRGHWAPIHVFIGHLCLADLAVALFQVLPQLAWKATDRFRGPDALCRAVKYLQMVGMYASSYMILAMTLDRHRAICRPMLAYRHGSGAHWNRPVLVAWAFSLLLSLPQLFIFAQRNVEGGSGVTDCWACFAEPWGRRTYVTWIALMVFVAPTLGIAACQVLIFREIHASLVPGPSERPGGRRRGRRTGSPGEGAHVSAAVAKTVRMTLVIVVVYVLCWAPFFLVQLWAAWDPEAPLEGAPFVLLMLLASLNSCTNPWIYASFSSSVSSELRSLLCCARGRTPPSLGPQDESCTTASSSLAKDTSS

Usually IC50 stands for the concentration at which inhibition is half-maximal. As for `NC(=O)C1CN(C(=O)c2ccccc2-n2cnc(Cn3nc(-c4ccc(Cl)cc4)n(C[C@H](O)C(F)(F)F)c3=O)n2)C1` [Example 189, 1-{2-[3-({3-(4-Chlorophenyl)-5-oxo-4-[(2S)-3,3,3-trifluoro-2-hydroxypropyl]-4,5-dihydro-1H-1,2,4-triazol-1-yl}methyl)-1H-1,2,4-triazol-1-yl]benzoyl}azetidine-3-carboxamide], the IC50 at human V1a receptor was found to be 60.8 nM; on human V2 receptor, 3650 nM. Further, the “ratio IC50 hV2/hV1a” value at human V1a receptor is recorded as 60.1.

On to `O=C1NCC2(CN(C(=O)c3ccccc3-n3cnc(Cn4nc(-c5ccc(Cl)cc5)n(C[C@H](O)C(F)(F)F)c4=O)n3)C2)N1` [Example 190, 2-{2-[3-({3-(4-Chlorophenyl)-5-oxo-4-[(2S)-3,3,3-trifluoro-2-hydroxypropyl]-4,5-dihydro-1H-1,2,4-triazol-1-yl}methyl)-1H-1,2,4-triazol-1-yl]benzoyl}-2,5,7-triazaspiro[3.4]octan-6-one], for which the half-inhibitory concentration (IC50) on human V1a receptor was determined as 300 nM; on human V2 receptor, 7050 nM. Moreover, the “ratio IC50 hV2/hV1a” value at human V1a receptor is 23.5.

For `NC(=O)[C@H]1CCCN1C(=O)c1ccccc1-n1cnc(Cn2nc(-c3ccc(Cl)cc3)n(C[C@H](O)C(F)(F)F)c2=O)n1` [Example 194, 1-{2-[3-({3-(4-Chlorophenyl)-5-oxo-4-[(2S)-3,3,3-trifluoro-2-hydroxypropyl]-4,5-dihydro-1H-1,2,4-triazol-1-yl}methyl)-1H-1,2,4-triazol-1-yl]benzoyl}-D-prolinamide], the half-inhibitory concentration (IC50) at human V1a receptor came out at 63.5 nM; on human V2 receptor it was 2950 nM. Further, the “ratio IC50 hV2/hV1a” value at human V1a receptor is on record as 46.5.

On to `NC(=O)[C@@H]1CCCN1C(=O)c1ccccc1-n1cnc(Cn2nc(-c3ccc(Cl)cc3)n(C[C@H](O)C(F)(F)F)c2=O)n1` [Example 195, 1-{2-[3-({3-(4-Chlorophenyl)-5-oxo-4-[(2S)-3,3,3-trifluoro-2-hydroxypropyl]-4,5-dihydro-1H-1,2,4-triazol-1-yl}methyl)-1H-1,2,4-triazol-1-yl]benzoyl}-L-prolinamide], for which, at human V1a receptor, the IC50 turned out to be 104 nM and the “ratio IC50 hV2/hV1a” value was determined as 23.0. For the same molecule, the IC50 on human V2 receptor came to 2390 nM.

`NC(=O)[C@@H]1CC(F)(F)CN1C(=O)c1ccccc1-n1cnc(Cn2nc(-c3ccc(Cl)cc3)n(C[C@H](O)C(F)(F)F)c2=O)n1` [Example 197, 1-{2-[3-({3-(4-Chlorophenyl)-5-oxo-4-[(2S)-3,3,3-trifluoro-2-hydroxypropyl]-4,5-dihydro-1H-1,2,4-triazol-1-yl}methyl)-1H-1,2,4-triazol-1-yl]benzoyl}-4,4-difluoro-L-prolinamide]: on human V1a receptor, the 50% inhibitory concentration (IC50) turned out to be 49.5 nM and the “ratio IC50 hV2/hV1a” value is 140.4. Also, the IC50 on human V2 receptor turned out to be 6950 nM.

Consider `NC(=O)[C@H]1CC(F)(F)CN1C(=O)c1ccccc1-n1cnc(Cn2nc(-c3ccc(Cl)cc3)n(C[C@H](O)C(F)(F)F)c2=O)n1` [Example 198, 1-{2-[3-({3-(4-Chlorophenyl)-5-oxo-4-[(2S)-3,3,3-trifluoro-2-hydroxypropyl]-4,5-dihydro-1H-1,2,4-triazol-1-yl}methyl)-1H-1,2,4-triazol-1-yl]benzoyl}-4,4-difluoro-D-prolinamide], for which, on human V1a receptor, the IC50 amounted to 22 nM and the “ratio IC50 hV2/hV1a” value was determined as 245.5. Moreover, the 50% inhibitory concentration (IC50) at human V2 receptor was 5400 nM.

Regarding `NC(=O)[C@@H]1CCN(C(=O)c2ccccc2-n2cnc(Cn3nc(-c4ccc(Cl)cc4)n(C[C@H](O)C(F)(F)F)c3=O)n2)C1` [Example 199, (3R)-1-{2-[3-({3-(4-Chlorophenyl)-5-oxo-4-[(2S)-3,3,3-trifluoro-2-hydroxypropyl]-4,5-dihydro-1H-1,2,4-triazol-1-yl}methyl)-1H-1,2,4-triazol-1-yl]benzoyl}pyrrolidine-3-carboxamide], at human V1a receptor, the IC50 is 36.5 nM and the “ratio IC50 hV2/hV1a” value came out at 66.4. The IC50 at human V2 receptor turned out to be 2420 nM.

For the molecule `NC(=O)[C@H]1CCN(C(=O)c2ccccc2-n2cnc(Cn3nc(-c4ccc(Cl)cc4)n(C[C@H](O)C(F)(F)F)c3=O)n2)C1` [Example 200, (3S)-1-{2-[3-({3-(4-Chlorophenyl)-5-oxo-4-[(2S)-3,3,3-trifluoro-2-hydroxypropyl]-4,5-dihydro-1H-1,2,4-triazol-1-yl}methyl)-1H-1,2,4-triazol-1-yl]benzoyl}pyrrolidine-3-carboxamide], the values for the IC50 on human V1a receptor and at human V2 receptor were 11.2 nM and 1730 nM, respectively. Besides, the “ratio IC50 hV2/hV1a” value at human V1a receptor stood at 153.3.

As to `CC1=NN=C(C)C1NC(=O)c1ccccc1-n1cnc(Cn2nc(-c3ccc(Cl)cc3)n(C[C@H](O)C(F)(F)F)c2=O)n1` [Example 201, 2-[3-({3-(4-Chlorophenyl)-5-oxo-4-[(2S)-3,3,3-trifluoro-2-hydroxypropyl]-4,5-dihydro-1H-1,2,4-triazol-1-yl}methyl)-1H-1,2,4-triazol-1-yl]-N-(3,5-dimethyl-4H-pyrazol-4-yl)benzamide], on human V1a receptor, the 50% inhibitory concentration (IC50) amounted to 1.2 nM and the “ratio IC50 hV2/hV1a” value was 3125.0. Also, the 50% inhibitory concentration (IC50) on human V2 receptor is 3750 nM.

Take `O=C(NCc1cccc(F)c1F)c1ccccc1-n1cnc(Cn2nc(-c3ccc(Cl)cc3)n(C[C@H](O)C(F)(F)F)c2=O)n1` [Example 203, 2-[3-({3-(4-Chlorophenyl)-5-oxo-4-[(2S)-3,3,3-trifluoro-2-hydroxypropyl]-4,5-dihydro-1H-1,2,4-triazol-1-yl}methyl)-1H-1,2,4-triazol-1-yl]-N-(2,3-difluorobenzyl)benzamide]: at human V1a receptor, the concentration for half-maximal inhibition (IC50) came to 8.35 nM and the “ratio IC50 hV2/hV1a” value is given as 26.9. Moreover, the IC50 at human V2 receptor amounted to 225 nM.

Regarding `Nc1ccc(NC(=O)c2ccccc2-n2cnc(Cn3nc(-c4ccc(Cl)cc4)n(C[C@H](O)C(F)(F)F)c3=O)n2)cc1` [Example 205, N-(4-Aminophenyl)-2-[3-({3-(4-chlorophenyl)-5-oxo-4-[(2S)-3,3,3-trifluoro-2-hydroxypropyl]-4,5-dihydro-1H-1,2,4-triazol-1-yl}methyl)-1H-1,2,4-triazol-1-yl]benzamide], at human V1a receptor, the half-inhibitory concentration (IC50) is 0.58 nM and the “ratio IC50 hV2/hV1a” value turned out to be 321.7. In addition, the concentration for half-maximal inhibition (IC50) at human V2 receptor was determined as 185 nM.

For the molecule `Cn1nccc1CNC(=O)c1ccccc1-n1cnc(Cn2nc(-c3ccc(Cl)cc3)n(C[C@H](O)C(F)(F)F)c2=O)n1` [Example 206, 2-[3-({3-(4-Chlorophenyl)-5-oxo-4-[(2S)-3,3,3-trifluoro-2-hydroxypropyl]-4,5-dihydro-1H-1,2,4-triazol-1-yl}methyl)-1H-1,2,4-triazol-1-yl]-N-[(1-methyl-1H-pyrazol-5-yl)methyl]benzamide], at human V1a receptor, the IC50 is 1.45 nM and the “ratio IC50 hV2/hV1a” value is 575.9. Besides, the IC50 on human V2 receptor amounted to 835 nM.

Regarding `O=C(NCc1cc(F)ccc1F)c1ccccc1-n1cnc(Cn2nc(-c3ccc(Cl)cc3)n(C[C@H](O)C(F)(F)F)c2=O)n1` [Example 207, 2-[3-({3-(4-chlorophenyl)-5-oxo-4-[(2S)-3,3,3-trifluoro-2-hydroxypropyl]-4,5-dihydro-1H-1,2,4-triazol-1-yl}methyl)-1H-1,2,4-triazol-1-yl]-N-(2,5-difluorobenzyl)benzamide], the IC50 on human V1a receptor is 5.35 nM; at human V2 receptor, 305 nM. The “ratio IC50 hV2/hV1a” value on human V1a receptor came out at 57.0.

Consider `Cc1ccc(CNC(=O)c2ccccc2-n2cnc(Cn3nc(-c4ccc(Cl)cc4)n(C[C@H](O)C(F)(F)F)c3=O)n2)o1` [Example 209, 2-[3-({3-(4-Chlorophenyl)-5-oxo-4-[(2S)-3,3,3-trifluoro-2-hydroxypropyl]-4,5-dihydro-1H-1,2,4-triazol-1-yl}methyl)-1H-1,2,4-triazol-1-yl]-N-[(5-methylfuran-2-yl)methyl]benzamide], for which the IC50 on human V1a receptor is 5.65 nM; at human V2 receptor, 130 nM. For the same molecule, the “ratio IC50 hV2/hV1a” value at human V1a receptor amounted to 23.0.

Consider `Cn1nccc1NC(=O)c1ccccc1-n1cnc(Cn2nc(-c3ccc(Cl)cc3)n(C[C@H](O)C(F)(F)F)c2=O)n1` [Example 210, 2-[3-({3-(4-Chlorophenyl)-5-oxo-4-[(2S)-3,3,3-trifluoro-2-hydroxypropyl]-4,5-dihydro-1H-1,2,4-triazol-1-yl}methyl)-1H-1,2,4-triazol-1-yl]-N-(1-methyl-1H-pyrazol-5-yl)benzamide], for which, on human V1a receptor, the IC50 worked out at 1.65 nM and the “ratio IC50 hV2/hV1a” value was 457.6. Further, the half-maximal inhibitory concentration (IC50) at human V2 receptor is 755 nM.

As to `O=C(Nc1ccc(F)cn1)c1ccccc1-n1cnc(Cn2nc(-c3ccc(Cl)cc3)n(C[C@H](O)C(F)(F)F)c2=O)n1` [Example 211, 2-[3-({3-(4-Chlorophenyl)-5-oxo-4-[(2S)-3,3,3-trifluoro-2-hydroxypropyl]-4,5-dihydro-1H-1,2,4-triazol-1-yl}methyl)-1H-1,2,4-triazol-1-yl]-N-(5-fluoropyridin-2-yl)benzamide], at human V1a receptor, the IC50 is 6.65 nM and the “ratio IC50 hV2/hV1a” value turned out to be 25.6. Further, the IC50 at human V2 receptor was 170 nM.

For `O=C(Nc1cc(O)[nH]n1)c1ccccc1-n1cnc(Cn2nc(-c3ccc(Cl)cc3)n(C[C@H](O)C(F)(F)F)c2=O)n1` [Example 212, 2-[3-({3-(4-Chlorophenyl)-5-oxo-4-[(2S)-3,3,3-trifluoro-2-hydroxypropyl]-4,5-dihydro-1H-1,2,4-triazol-1-yl}methyl)-1H-1,2,4-triazol-1-yl]-N-(5-hydroxy-1H-pyrazol-3-yl)benzamide], on human V1a receptor, the 50% inhibitory concentration (IC50) was 23.5 nM and the “ratio IC50 hV2/hV1a” value turned out to be 24.5. At human V2 receptor, the half-maximal inhibitory concentration (IC50) came out at 575 nM.

On to `Cc1cc(NC(=O)c2ccccc2-n2cnc(Cn3nc(-c4ccc(Cl)cc4)n(C[C@H](O)C(F)(F)F)c3=O)n2)n(C)n1` [Example 213, 2-[3-({3-(4-Chlorophenyl)-5-oxo-4-[(2S)-3,3,3-trifluoro-2-hydroxypropyl]-4,5-dihydro-1H-1,2,4-triazol-1-yl}methyl)-1H-1,2,4-triazol-1-yl]-N-(1,3-dimethyl-1H-pyrazol-5-yl)benzamide], for which, at human V1a receptor, the IC50 came out at 7.55 nM and the “ratio IC50 hV2/hV1a” value was 178.1. Further, the IC50 on human V2 receptor was determined as 1340 nM.
